Nine compounds from patent US20050209278A1, “Piperidinyl- and piperazinyl-sulfonylmethyl hydroxamic acids and their use as protease inhibitors” (priority 2002, published 2005) can be followed below.

SMILES strings stand for the structures. Counter-ions that a name gives are not always drawn. Like-named read-outs stand apart in the source and are kept apart here.

One experiment deals with T1, MMP-9 (Homo sapiens, UniProt P14780).
T1 construct: made in house; host or cells: MMP-9-transfected HT1080 cells (spent media)
Kind of experiment: In vitro MMP inhibition, Ki determination (fluorogenic substrate II). Type of experiment: biochemical. The gist of the method:
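HT1080-derived MMP-9, activated with APMA, trypsin or MMP-3, incubated 1 hr at room temperature with inhibitor and 4 μM fluorogenic substrate II (at or below Km) in pH 7.5 Tris/NaCl/CaCl2 buffer; ex 330/em 420 nm. Ki from Morrison-equation regression, without substrate correction.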

A further experiment deals with T2, MMP-2 (Homo sapiens, UniProt P08253).
T2 construct: made in house; host or cells: MMP-2-transfected p2AHT2 cells
T2 sequence (P08253 110-660): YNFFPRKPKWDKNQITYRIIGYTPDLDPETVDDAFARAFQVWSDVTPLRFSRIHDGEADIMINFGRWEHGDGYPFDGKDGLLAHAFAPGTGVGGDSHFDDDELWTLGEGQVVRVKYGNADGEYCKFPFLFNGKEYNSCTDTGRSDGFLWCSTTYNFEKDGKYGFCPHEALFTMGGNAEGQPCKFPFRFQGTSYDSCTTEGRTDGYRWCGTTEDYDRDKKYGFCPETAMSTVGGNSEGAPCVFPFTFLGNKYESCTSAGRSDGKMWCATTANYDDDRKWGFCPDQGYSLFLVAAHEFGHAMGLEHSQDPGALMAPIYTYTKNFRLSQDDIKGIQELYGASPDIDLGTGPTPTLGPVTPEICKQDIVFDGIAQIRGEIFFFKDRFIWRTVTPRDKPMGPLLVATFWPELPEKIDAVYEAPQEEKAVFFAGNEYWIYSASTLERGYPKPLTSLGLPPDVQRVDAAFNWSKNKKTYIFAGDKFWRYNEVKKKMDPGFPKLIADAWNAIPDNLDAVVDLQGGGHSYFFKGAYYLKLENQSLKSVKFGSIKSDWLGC
The description is as above. Type of experiment: biochemical. As to conditions: read-out: MMP-2 Ki.

Setting [1] is: human recombinant enzyme, 4 μM substrate II, room temperature, 1 hr.

T1 sequence (P14780 107-707 limits assumed): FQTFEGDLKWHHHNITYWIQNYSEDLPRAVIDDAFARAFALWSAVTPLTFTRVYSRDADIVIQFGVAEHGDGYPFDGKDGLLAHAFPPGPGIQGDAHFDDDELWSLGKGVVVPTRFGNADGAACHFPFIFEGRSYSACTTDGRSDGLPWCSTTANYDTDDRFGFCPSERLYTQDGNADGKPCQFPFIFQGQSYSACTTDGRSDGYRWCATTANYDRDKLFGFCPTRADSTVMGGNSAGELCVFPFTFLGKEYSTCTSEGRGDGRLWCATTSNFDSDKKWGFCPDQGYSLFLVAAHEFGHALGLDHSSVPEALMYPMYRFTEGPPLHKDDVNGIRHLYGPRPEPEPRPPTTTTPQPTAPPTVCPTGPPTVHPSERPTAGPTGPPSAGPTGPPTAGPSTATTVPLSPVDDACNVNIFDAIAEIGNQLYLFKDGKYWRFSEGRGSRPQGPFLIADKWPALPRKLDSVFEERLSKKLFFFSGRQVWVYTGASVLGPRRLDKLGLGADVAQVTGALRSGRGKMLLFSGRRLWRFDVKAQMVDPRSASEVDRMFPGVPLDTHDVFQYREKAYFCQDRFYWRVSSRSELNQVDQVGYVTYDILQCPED

One may read the Ki as a dissociation constant, usually derived from enzyme kinetics or from competition with a known ligand. `O=C(NO)C1(S(=O)(=O)N2CCC(c3ccc(OCC(F)(F)F)cc3)CC2)CCN(C2CC2)CC1` [Example 25, 1-cyclopropyl-N-hydroxy-4-({4-[4-(2,2,2-trifluoroethoxy)phenyl]piperidin-1-yl}sulfonyl)piperidine-4-carboxamide Hydrochloride]: the Ki at MMP-9 (setting [1]) was determined as 6 nM; at MMP-2 (setting [1]) it was 1.18 nM.

Turning to `CC(C)CCc1ccc(N2CCN(S(=O)(=O)C3(C(=O)NO)CCOCC3)CC2)nc1` [Example 133], the results for the Ki at MMP-9 (value not in parenthesis) and on MMP-2 (value not in parenthesis) were 0.52 nM and 0.251 nM, respectively.

Take `CCCCOc1ccc(N2CCN(S(=O)(=O)C3(C(=O)NO)CCN(C(=O)OCC(F)(F)F)CC3)CC2)cc1` [Example 115]: the Ki at MMP-9 (value not in parenthesis) amounted to 4.97 nM; at MMP-2 (value not in parenthesis), 1.48 nM.

Consider `O=C(NO)C1(S(=O)(=O)N2CCN(c3ncc(Br)cn3)CC2)CCOCC1` [Example 103], for which the Ki at MMP-9 (value not in parenthesis) amounted to 10.5 nM; at MMP-2 (value not in parenthesis) it was 3.44 nM.

Consider `CCCCCCCCCc1cnc(N2CCN(S(=O)(=O)C3(C(=O)NO)CCOCC3)CC2)nc1` [Example 110], for which the Ki was 40.6 nM on MMP-9 (value not in parenthesis) and 61.7 nM at MMP-2 (value not in parenthesis).

Regarding `COCCOc1ccc(N2CCN(S(=O)(=O)C3(C(=O)NO)CCOCC3)CC2)cc1` [Example 14, N-hydroxy-4-({4-[4-(2-methoxyethoxy)phenyl]piperazin-1-yl}sulfonyl)tetrahydro-2H-pyran-4-carboxamide Hydrochloride], the Ki on MMP-9 (setting [1]) turned out to be 20 nM; on MMP-2 (setting [1]) it was 3.84 nM.

For the compound `O=C(c1cccnc1)N1CCC(C(=O)NO)(S(=O)(=O)N2CCN(c3ccc(OCCCC(F)(F)F)cc3)CC2)CC1` [Example 122], the Ki at MMP-9 (value not in parenthesis) was determined as 0.01 nM; at MMP-2 (value not in parenthesis), 0.34 nM.

For `CCCCOc1ccc(N2CCN(S(=O)(=O)C3(C(=O)NO)CCN(c4ccc(C)cn4)CC3)CC2)cc1` [Example 125], the inhibitory constant (Ki) came to 7.2 nM on MMP-9 (value not in parenthesis) and 1.8 nM on MMP-2 (value not in parenthesis).

Take `CCCCOc1ccc(N2CCN(S(=O)(=O)C3(C(=O)NO)CCN(c4ccc(OC)nc4)CC3)CC2)cc1` [Example 142]: the Ki on MMP-9 (value not in parenthesis) was found to be 2.15 nM; on MMP-2 (value not in parenthesis), 0.978 nM.
